Results from article PMC11891452, “Molecular Insights Into β‐Glucuronidase Inhibition by Alhagi Graecorum Flavonoids: A Computational and Experimental Approach” (ChemistryOpen, 2024).

Tests used:
[1] = molecular target: T1, β‐glucuronidase (Escherichia coli, UniProt P05804); test: inhibition kinetics (Michaelis‐Menten, Lineweaver‐Burk and slope plots) of PNPG hydrolysis; assay type: biochemical; conditions: for mode of inhibition: Lineweaver‐Burk plots, PNPG hydrolysis; for Ki: PNPG 200-1000 μM, from slope plots of Lineweaver‐Burk plots
T1 construct: purchased Sigma (USA)
T1 sequence (P05804 whole entry): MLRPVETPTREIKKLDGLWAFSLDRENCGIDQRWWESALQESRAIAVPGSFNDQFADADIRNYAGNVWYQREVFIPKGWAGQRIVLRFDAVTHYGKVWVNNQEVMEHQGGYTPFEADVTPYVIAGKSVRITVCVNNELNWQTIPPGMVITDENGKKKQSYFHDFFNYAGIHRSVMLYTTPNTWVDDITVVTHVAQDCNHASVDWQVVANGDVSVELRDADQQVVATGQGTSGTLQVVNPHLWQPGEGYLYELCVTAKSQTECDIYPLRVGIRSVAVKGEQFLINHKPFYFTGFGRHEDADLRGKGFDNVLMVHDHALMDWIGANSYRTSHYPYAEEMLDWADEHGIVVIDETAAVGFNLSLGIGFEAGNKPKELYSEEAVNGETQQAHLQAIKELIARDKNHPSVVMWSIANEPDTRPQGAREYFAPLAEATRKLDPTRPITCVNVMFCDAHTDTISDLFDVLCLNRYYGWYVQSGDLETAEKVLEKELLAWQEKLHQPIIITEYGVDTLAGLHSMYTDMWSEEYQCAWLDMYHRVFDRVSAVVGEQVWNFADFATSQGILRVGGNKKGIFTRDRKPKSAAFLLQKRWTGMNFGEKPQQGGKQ
Excerpt: To analyze the binding interactions between the tested inhibitors and the target enzyme, we constructed Michaelis‐Menten and Lineweaver‐Burk plots. These plots helped us understand how the inhibitors affect the enzyme′s kinetics. The Lineweaver‐Burk plot′s intersection point was used to identify the inhibition mode (noncompetitive, competitive, uncompetitive, or mixed). Established methods were employed to determine the specific inhibition mode and Ki values.[27, 28]
(§1) To ensure reproducibility, all data are presented as the mean value±standard deviation (SD). This reflects the average value obtained from three independent trials. IC50 values, signifying the inhibitor concentration required for half‐maximal response, were determined from the concentration‐response curves. The IC50 and inhibition constant (Ki) values were estimated using nonlinear regression by the GraphPad Prism 9.0 software.

[2] = molecular target: T1, β‐glucuronidase; test: in vitro β‐glucuronidase inhibition assay with PNPG as substrate; assay type: biochemical; conditions: pH 7.4, 37 °C, 30 min, mean±SD; for IC50: PNPG substrate; for inhibition at 10 µM: inhibitor 10 μM, PNPG 250 μM, read-out: Inhibition rate 10 μM (%)
Excerpt: The substrate p‐Nitrophenyl‐β‐D‐glucuronide (PNPG) and the employed reference drug (−)‐Epigallocatechin gallate (EGCG) were purchased from Sigma‐Aldrich. For this study, β‐glucuronidase, the enzyme of interest, was purchased from Sigma (USA). All other chemicals and solvents used were in the highest purity state or HPLC grade. Five isolated flavonoids from A. graecorum were assigned for their β‐glucuronidase inhibitory efficacy. We prepared the β‐glucuronidase enzyme according to the method reported by Weng et al..[27] A 100 mM stock solution of the substrate (PNPG) was prepared using […] and stored at −20 °C for subsequent utilization. Milli‐Q water was used exclusively for both the PNPG solution and the 0.1 M phosphate buffer solution (pH 7.4).
To estimate the activities of tested flavonoids as inhibitors against β‐glucuronidase, we employed PNPG as the substrate. The assessment procedure followed well‐documented previously reported protocols.[28] In brief, 96‐well plate assays were performed (100 μL/well) to assess β‐glucuronidase inhibition by flavonoids. Each well contained: β‐glucuronidase (2 μg/mL, 10 μL), flavonoid/EGCG inhibitor (10 μM, 10 μL), PNPG substrate (250 μM, 10 μL), and PBS buffer (pH 7.4, 70 μL). Reactions were done in triplicate. Enzyme activity was estimated by tracking PNP formation (OD₄₁₀ nm) after incubation (37 °C, 30 min). A standard curve (0–120 μM PNP) was used to quantify PNP. Relative activity (%) was calculated compared to the blank control. In addition, EGCG was employed as a reference drug. IC50 assays for flavonoid inhibition of β‐glucuronidase were conducted at temperature of 37 °C for 30 minutes. Each reaction contained: β‐glucuronidase (2.0 μg/mL, 10 μL), flavonoid/EGCG (varying concentrations, 0.001–1000 μM, 10 μL), and PBS buffer (pH 7.4, 70 μL). Relative activity (%) was measured as enzyme activity with an inhibitor compared to activity without an inhibitor. A concentration‐response curve was constructed using relative activity data to determine IC50 values.
as §1

SMILES	mode of inhibition [1]	Ki [1] [µM]	IC50 [2] [µM]	inhibition at 10 µM [2] [%]
O=C(O[C@@H]1Cc2c(O)cc(O)cc2O[C@@H]1c1cc(O)c(O)c(O)c1)c1cc(O)c(O)c(O)c1 [EGCG, (−)‐Epigallocatechin gallate, reference compound]	mixed	1.42	3.26 ± 0.05	96.14 ± 0.54
O=c1c(O)c(-c2cc(O)c(O)c(O)c2)oc2cc(O)cc(O)c12 [myricetin]	noncompetitive	3.07	3.95 ± 0.04	92.59 ± 0.56
COc1cc(-c2oc3cc(O)cc(O)c3c(=O)c2O)ccc1O [isorhamnetin]			26.4 ± 0.72	73.9 ± 1.09
O=C1C[C@@H](c2ccc(O)cc2)Oc2cc(O)cc(O)c21 [naringenin]			52.3 ± 2.44	56 ± 2.5
COc1cc(-c2cc(=O)c3c(O)cc(O)cc3o2)ccc1O [chrysoeriol]	noncompetitive			87.97 ± 0.65
COc1ccc(-c2oc3cc(O)cc(O)c3c(=O)c2O)cc1O [tamarixetin]			19.9 ± 1.23	80 ± 1.71
